The conditions of data set [1]: rat, in vivo, iv; cited from earlier work.
Data set [2] concerns rat hippocampal neuron/glia co-cultures. To be noted: gp120 as neurotoxin; cited from earlier work.
For data set [3] the following is noted: humans; cited from earlier work.
For data set [4], the system named is rat renal proximal tubule epithelial cells. In words: Reduction of cisplatin-induced apoptotic cell death of renal proximal tubule epithelial cells (histone-associated DNA fragmentation). In kind it is cell-based. To be noted: cisplatin 24 hours; for reduction in cisplatin-induced apoptotic cell death: 10^-6 M in the medium.
The test system of data set [5] is transient focal cerebral ischemia. To be noted: 48 hours, cited from earlier work.
The test system of data set [6] is light-chain immunoglobulin-secreting human multiple myeloma cells. Kind of data set: Inhibition of proliferation of light-chain immunoglobulin-secreting human multiple myeloma cells (bromodeoxyuridine incorporation). In kind it is cell-based. As for the experimental part: FIG. 3 is a table listing the EC50 for the inhibitory effects of PACAP38, PACAP27, VIP, and eight novel PACAP analogs on the proliferation of light-chain immunoglobulin-secreting myeloma cells. The light-chain immunoglobulin-secreting human multiple myeloma cells were cultured in RPMI 1640 medium supplemented with 10% non-inactivated fetal bovine serum and 0.05 mM 2-mercaptoethanol. The effects of PACAP38, PACAP27, VIP, and the eight novel PACAP analogs on myeloma cell proliferation were assessed by determining incorporation of bromodeoxyuridine into DNA during cell division. The number of myeloma cells approximately doubled during the 24-hour incubation period in the absence of treatment with PACAP-like peptides. Five different concentrations, ranging from 10^-13 M to 10^-5 M, were tested for PACAP38, PACAP27, VIP, and each of the eight novel PACAP analogs. The EC50 was calculated from the concentration response curve using the software package Prism (Graph Pad, San Diego, CA). Each value represents the mean of four-six determinations per experiment. The EC50 for PACAP38 is based on the average of four separate experiments, while the EC50 for PACAP27 and [Pip^3,Aib ^16,28,Ala^17,Lys^34,D-LysIPACAP 38 (SEQ ID NO: 4) is based on the average of two separate experiments.
FIG. 4 is a graph showing a representative concentration response curve from a single experiment on the inhibitory effects PACAP38 and six PACAP38 analogs on the proliferation of light-chain immunoglobulin-secreting human myeloma cells. Each value represents the mean plus/minus the standard error of four-six determinations. Note that replacing pipecolic acid in position 3 of the novel analogs with either nipecotic acid or isonipecotic acid results in an analog with more than four orders of magnitude lower inhibitory potency.
The effects of PACAP38, PACAP27, VIP, and PACAP analogs on myeloma cell proliferation were assessed by determining incorporation bromodeoxyuridine into DNA during cell division. […]

The test system of data set [7] is human myeloma cell line (MM.1 R). Kind of data set: Proliferation of dexamethasone-resistant myeloma cell line MM.1R (bromodeoxyuridine incorporation). In kind it is cell-based. Conditions: FIG. 9. As for the experimental part: (§1) FIG. 9 is a graph showing the effects PACAP38, [Pip^3,Ala^14,17,Aib^16,28,Lys^34,D-Lys^38] PACAP38(SEQ ID NO: 6) and dexamethasone on the proliferation of light-chain immunoglobulin-secreting human myeloma cell line (MM.1 R) that was derived from a patient who was being treated for multiple myeloma with a dexamethasome-containing regimen. The light-chain immunoglobulin-secreting multiple myeloma cells were cultured in RPMI 1640 medium supplemented with 10% non-inactivated fetal bovine serum and 0.05mM 2-mercaptoethanol. The effects of dexamethasone, PACAP38 and the novel PACAP38 analog on cell proliferation were assessed by determining the incorporation of bromodeoxyuridine into DNA during cell division. Each value represents the mean plus/minus the standard error of four-six determination. The cell lines in FIGS. 8 and 9 were obtained from the same patient at different stages of the treatment (Greenstein et al., Exp Hematol 31 :271-282, 2003).

Data set [8] concerns ischemia/reperfusion injury to the kidney. Kind of data set: Serum creatinine after renal ischemia/reperfusion injury in mice. In kind it is in vivo, male C57BL/6 mice. To be noted: 20 micrograms i.p. 1, 24 and 48 h after start of reperfusion; 45 min renal artery clamping; 72 hours. As for the experimental part:
FIG. 6 is a graph showing the effects of PACAP38 and two novel PACAP analogs on serum creatinine levels in mice following ischemia/reperfusion injury to the kidney. The renal artery in male C57BL/6 mice was clamped bilaterally for 45 minutes in all mice except for the sham-operated mice. Twenty micrograms of PACAP38 or one of the PACAP analogs were given intraperitoneally 1 hour after the start of reperfusion and additional doses were given at 24 and 48 hours after the initial dose. The sham-operated group of mice was injected intraperitoneally with PACAP38 on the same schedule as the mice subjected to ischemia/reperfusion. The control group of mice was injected intraperitoneally with the same volume of saline as for the injections of PACAP38 on the same schedule. All of the mice were euthanized 24 hours after the final injection of saline, PACAP38 or one of the novel PACAP analogs. Each value represents the mean plus/minus the standard error of four determinations. **p<0.01 and *p<0.05 compared to the ischemia/reperfusion group treated with saline. I/R, ischemia/reperfusion; sham, sham-operated.

Data set [9] deals with human renal proximal tubule epithelial cells. In words: Reduction of gentamicin-induced apoptotic cell death of human renal proximal tubule epithelial cells. To be noted: gentamicin 24 hours. In kind it is cell-based. How it is done:
The inhibitory effects of PACAP38 and the novel PACAP analog on apoptotic cell death was assessed by the quantitative determination of cytoplasmic histone-associated DNA-fragmentation (mono- and oligonucleosomes) after exposure to gentamicin for 24 hours. […] Each value represents the mean plus/minus the standard deviation of four determinations. **p<0.01 and *p<0.05 compared to the group treated only with gentamicin.

In data set [10] the test system is human myeloma cell line (MM.1S). Kind of data set: Proliferation of myeloma cell line MM.1S (bromodeoxyuridine incorporation). It is filed as cell-based. Conditions: FIG. 8. How it is done: as §1, with “FIG. 8” for “FIG. 9”, “PACAP38, [Pip^3,Ala^14,17,Aib^1 6,28,Lys^34,D-Lys^38 (SEQ” for “PACAP38, [Pip^3,Ala^14,17,Aib^16,28,Lys^34,D-Lys^38] PACAP38(SEQ”, “line (MM.1S)” for “line (MM.1 R)”, “novel PACAP38analog” for “novel PACAP38 analog”, “four-six determinations.” for “four-six determination.”, “Exp HematoI31” for “Exp Hematol 31”

The next data set deals with T1, PAC1 receptor (Homo sapiens, UniProt P41586).
T1 sequence (P41586 21-468): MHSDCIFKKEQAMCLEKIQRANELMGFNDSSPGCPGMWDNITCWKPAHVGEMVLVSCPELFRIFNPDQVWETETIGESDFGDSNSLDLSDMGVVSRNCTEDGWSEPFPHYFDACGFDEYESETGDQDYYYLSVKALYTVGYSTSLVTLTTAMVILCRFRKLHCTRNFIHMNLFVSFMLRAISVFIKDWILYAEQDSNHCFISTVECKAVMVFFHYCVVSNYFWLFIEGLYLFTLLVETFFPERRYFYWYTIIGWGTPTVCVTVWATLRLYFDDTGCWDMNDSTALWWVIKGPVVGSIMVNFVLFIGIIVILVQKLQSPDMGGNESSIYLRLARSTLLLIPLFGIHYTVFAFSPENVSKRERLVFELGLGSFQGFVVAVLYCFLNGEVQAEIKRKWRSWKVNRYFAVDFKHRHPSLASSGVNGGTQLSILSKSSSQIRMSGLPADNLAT
Conditions: cited from earlier work.

Several values for one entry are separate records, joined by “and”; a condition that tells them apart may be missing. Equal values may be shown once. Entries after “also recorded” stand apart in the source; their conditions may differ. Read-outs that look alike come from different tables or passages of the source.

Regarding [^125I]-PACAP38, the “half-life in the bloodstream” value in data set [1] is 5 to 6 min.

PACAP: the “peaks of bimodal dose-response curve for prevention of neuronal death” value in data set [2] was 10^−13 M and 10^−10 M. Moreover, in data set [3], the “only untoward effect reported” value is “transient flushing”.

“HSDGIFTDSYSRYRKQMAVKKYLAAVLGKRYKQRVKNK [PACAP38]”: the “reduction in cisplatin-induced apoptotic cell death” value in [4] was “significant reduction”. For the same substance, the “reduction of the infarct volume” value is on record as “approximately 51%” in data set [5] (continuous i.v. infusion beginning 4 hours after start of 2-hour MCAO), around 22% in data set [5] (continuous i.v. infusion beginning 8 hours after start of 2-hour MCAO) and around 12% in data set [5] (continuous i.v. infusion beginning 12 hours after start of 2-hour MCAO). Besides, the EC50 in data set [6] (24-hour incubation, FIG. 3, read-out: concentration giving 50% inhibition of the rate of proliferation (EC50)) was around 0.25 nM. The “sensitivity of cell proliferation” value was “still sensitive” in [7] and “sensitive” in data set [10]. The “reversal of the rise in serum creatinine caused by ischemia/reperfusion” value in data set [8] was “almost completely reversed”. Besides, the “cytoprotective potency, PACAP38 versus [Pip^3]PACAP38” value in [9] is recorded as “more effective”. The “reduction in gentamicin-induced apoptotic cell death” value in [9] (various concentrations) was “significant dose-dependent reduction; also recorded: dose-dependent inhibition”.

Take VIP: the “reduction in cisplatin-induced apoptotic cell death” value in [4] is reported as “reduced”. Further, the “cytoprotective potency compared with PACAP38” value in data set [4] (comparable concentrations) is “significantly less potent than PACAP38”. In data set [6] (inhibition of myeloma cell proliferation), the “potency compared with PACAP38 or the novel PACAP38 analogs” value is “significantly less potent”. The “affinity for PAC1 receptor relative to PACAP” value with PAC1 receptor was 1,000 times less.

The values above are taken from US8916517B2, “Analogs of pituitary adenylate cyclase-activating polypeptide (PACAP) and methods for their use” (The Administrators of the Tulane Educational Fund, priority 2009, dated 2014).
